Data from US8546320B2, “Hsp9O-targeted anti-cancer chimeric peptide” (Kyoto University, priority 2008, dated 2013).
Where a SMILES comes first, the peptide text is derived from it.

Key:
Caki-1 = format: cell-based, human; conditions: Caki-1; for Anti-cancer activity (% relative to wild-type peptide) / Decrease in cell survival rate (% relative to wild-type peptide): wild-type peptide = 100%
Protocol: A total of 3×10^3 cells were inoculated per well on a 96 well plate and cultured in a medium containing 10% FBS for 24 hours, and incubated with 100 μl of a peptide having a gradual increase in concentration at 37° C. for 48 to 72 hours. The survival rate of the cells was measured by using WST-8 solution (Cell Count Reagent SF; Nacalai Tesque, Inc.).
Respective variant peptides were subjected to cell viability assay. Specifically, Caki-1 (American Type Culture Collection (Manassas, Va.) was inoculated in a total amount of 3×10^3 cells per well on a 96 well plate (Nunc™); the cells were cultured in a medium (DMEM (Tesque, Inc.) containing 10% FBS (fetal bovine serum; Biowest)) for 24 hours and incubated with 100 μl of a peptide having a gradual increase in concentration at 37° C. for 48 to 72 hours. The cell survival rate was measured by using WST-8 solution (Cell Count Reagent SF; Nacalai Tesque, Inc.) and compared with that of the wild-type Antp-TPR peptide.
Respective variant peptides were subjected to cell viability assay. Specifically, Caki-1 (American Type Culture Collection (Manassas, Va.) was inoculated in a total amount of 3×10^3 cells per well on a 96 well plate (Nunc™); the cells were cultured in a medium containing 10% FBS for 24 hours and incubated with 100 μl of a peptide having a gradual increase in concentration at 37° C. for 48 to 72 hours. The cell survival rate was measured by using WST-8 solution (Cell Count Reagent SF; Nacalai Tesque, Inc.) and compared with that of the wild-type Antp-TPR peptide.

cancer cells = experiment: Cell viability assay, summary statements on cancer cells; format: cell-based; conditions: for effect compared with the wild-type protein (summary of mutations): single mutation in TPR or Antp region of Antp-TPR
U937 = experiment: cells; format: cell-based, human; conditions: U937; for Cell Survival Rate (%): concentration not given; for Anti-cancer activity (% relative to wild-type peptide) / Decrease in cell survival rate (% relative to wild-type peptide): wild-type peptide = 100%
Protocol: A total of 3×10^3 cells per well were inoculated onto a 96 well plate, and incubated in a medium containing 10% FBS with 100 μl of a peptide diluted stepwise at 37° C. for 48 to 72 hours. The survival rate of the cells was measured by using WST-8 solution (Cell Count Reagent SF; Nacalai Tesque, Inc.).

CC[C@H](C)[C@H](NC(=O)[C@H](CCCNC(=N)N)NC(=O)[C@H](C)NC(=O)[C@H](Cc1ccc(O)cc1)NC(=O)[C@H](C)NC(=O)[C@H](CCCCN)NC(=O)[C@H](CCCCN)NC(=O)[C@H](CCCCN)NC(=O)[C@H](Cc1c[nH]c2ccccc12)NC(=O)[C@H](CCCCN)NC(=O)[C@H](CCSC)NC(=O)[C@H](CCCNC(=N)N)NC(=O)[C@H](CCCNC(=N)N)NC(=O)[C@H](CC(N)=O)NC(=O)[C@H](CCC(N)=O)NC(=O)[C@H](Cc1ccccc1)NC(=O)[C@H](Cc1c[nH]c2ccccc12)NC(=O)[C@@H](NC(=O)[C@H](CCCNC(=N)N)NC(=O)[C@@H](NC(=O)[C@H](CCC(N)=O)NC(=O)[C@@H](N)CCCNC(=N)N)[C@@H](C)CC)[C@@H](C)CC)C(=O)NCC(=O)N[C@@H](CC(N)=O)C(=O)N[C@@H](CO)C(=O)N[C@@H](Cc1ccc(O)cc1)C(=O)N[C@@H](Cc1ccccc1)C(=O)N[C@@H](CCCCN)C(=O)O [Antp K4R-TPR] (H-RQIRIWFQNRRMKWKKKAYARIGNSYFK-OH; N-terminus and C-terminus assumed)
killing effect compared with the wild-type peptide (Caki-1): stronger than that of the wild-type peptide | Anti-cancer activity (% relative to wild-type peptide) (Caki-1): 109.86% | Decrease in cell survival rate (% relative to wild-type peptide) (Caki-1): 573.28% | effect compared with the wild-type protein (summary of mutations) (cancer cells): effect higher than the wild-type protein

CC[C@H](C)[C@H](NC(=O)[C@H](CCCNC(=N)N)NC(=O)[C@H](C)NC(=O)[C@H](Cc1ccc(O)cc1)NC(=O)[C@H](C)NC(=O)[C@H](CCCCN)NC(=O)[C@H](CCCCN)NC(=O)[C@H](CCCCN)NC(=O)[C@H](Cc1c[nH]c2ccccc12)NC(=O)[C@H](CCCCN)NC(=O)[C@H](CCSC)NC(=O)[C@H](CCCNC(=N)N)NC(=O)[C@H](CCCNC(=N)N)NC(=O)[C@H](CC(N)=O)NC(=O)[C@H](CCC(N)=O)NC(=O)[C@H](Cc1ccccc1)NC(=O)[C@H](Cc1c[nH]c2ccccc12)NC(=O)[C@@H](NC(=O)[C@H](CCCCN)NC(=O)[C@H](CC(C)C)NC(=O)[C@H](CCC(N)=O)NC(=O)[C@@H](N)CCCNC(=N)N)[C@@H](C)CC)C(=O)NCC(=O)N[C@@H](CC(N)=O)C(=O)N[C@@H](CO)C(=O)N[C@@H](Cc1ccc(O)cc1)C(=O)N[C@@H](Cc1ccccc1)C(=O)N[C@@H](CCCCN)C(=O)O [Antp 13L-TPR] (H-RQLKIWFQNRRMKWKKKAYARIGNSYFK-OH; N-terminus and C-terminus assumed)
Anti-cancer activity (% relative to wild-type peptide) (Caki-1): 69.12% | Decrease in cell survival rate (% relative to wild-type peptide) (Caki-1): 27.91% | effect compared with the wild-type protein (summary of mutations) (cancer cells): effective but with an effect lower than the wild-type protein

CC[C@H](C)[C@H](NC(=O)[C@H](CCCNC(=N)N)NC(=O)[C@H](C)NC(=O)[C@H](Cc1ccc(O)cc1)NC(=O)[C@H](C)NC(=O)[C@H](CCCCN)NC(=O)[C@H](CCCCN)NC(=O)[C@H](CCCCN)NC(=O)[C@H](Cc1c[nH]c2ccccc12)NC(=O)[C@H](CCCCN)NC(=O)[C@H](CCSC)NC(=O)[C@H](CCCNC(=N)N)NC(=O)[C@H](CCCNC(=N)N)NC(=O)[C@H](CC(N)=O)NC(=O)[C@H](CC(N)=O)NC(=O)[C@H](Cc1ccccc1)NC(=O)[C@H](Cc1c[nH]c2ccccc12)NC(=O)[C@@H](NC(=O)[C@H](CCCCN)NC(=O)[C@@H](NC(=O)[C@H](CCC(N)=O)NC(=O)[C@@H](N)CCCNC(=N)N)[C@@H](C)CC)[C@@H](C)CC)C(=O)NCC(=O)N[C@@H](CC(N)=O)C(=O)N[C@@H](CO)C(=O)N[C@@H](Cc1ccc(O)cc1)C(=O)N[C@@H](Cc1ccccc1)C(=O)N[C@@H](CCCCN)C(=O)O [Antp Q8N-TPR] (H-RQIKIWFNNRRMKWKKKAYARIGNSYFK-OH; N-terminus and C-terminus assumed)
killing effect compared with the wild-type peptide (Caki-1): stronger than that of the wild-type peptide | Anti-cancer activity (% relative to wild-type peptide) (Caki-1): 109.65% | Decrease in cell survival rate (% relative to wild-type peptide) (Caki-1): 519.29% | effect compared with the wild-type protein (summary of mutations) (cancer cells): effect similar to that of the wild-type protein

RQIKIWFQNRRMKWKKKGYGRIGNYYYK (Antp-TPR A2G,A4G,S9Y,F11Y peptide) [Antp-A2G, A4G, S9Y, F11Y]
killing effect compared with the wild-type peptide (U937): increase in effect | Cell Survival Rate (%) (U937): 21.14% | Anti-cancer activity (% relative to wild-type peptide) (U937): 102.73% | Decrease in cell survival rate (% relative to wild-type peptide) (U937): 109.90%

CC[C@H](C)[C@H](NC(=O)[C@H](CCCCN)NC(=O)[C@@H](NC(=O)[C@H](CCC(N)=O)NC(=O)[C@@H](N)CCCNC(=N)N)[C@@H](C)CC)C(=O)N[C@@H](Cc1c[nH]c2ccccc12)C(=O)N[C@@H](Cc1ccccc1)C(=O)N[C@@H](CCC(N)=O)C(=O)N[C@@H](CC(N)=O)C(=O)N[C@@H](CCCNC(=N)N)C(=O)N[C@@H](CCCNC(=N)N)C(=O)N[C@@H](CCSC)C(=O)N[C@@H](CCCCN)C(=O)N[C@@H](Cc1c[nH]c2ccccc12)C(=O)N[C@@H](CCCCN)C(=O)N[C@@H](CCCCN)C(=O)N[C@@H](CCCCN)C(=O)N[C@@H](C)C(=O)N[C@@H](Cc1ccc(O)cc1)C(=O)N[C@@H](C)C(=O)N[C@@H](C)C(=O)N[C@@H](C)C(=O)NCC(=O)N[C@@H](CC(N)=O)C(=O)N[C@@H](CO)C(=O)N[C@@H](Cc1ccc(O)cc1)C(=O)N[C@@H](Cc1ccccc1)C(=O)N[C@@H](CCCCN)C(=O)O (H-RQIKIWFQNRRMKWKKKAYAAAGNSYFK-OH; N-terminus and C-terminus assumed)
cytotoxic activity / cell-killing effect (cancer cells): the cytotoxic activity was lower

RQIKIWFQNRRMKWKKRKFSAAIGYNKY (Antp-scramble peptide) [reference compound]
Cell Survival Rate (%) (U937): 95.30% | Anti-cancer activity (% relative to wild-type peptide) (U937): 6.13% | Decrease in cell survival rate (% relative to wild-type peptide) (U937): 24.39%

RQIKIWFQNRRMKWKKKAYARAGNSYFK (Antp-TPR I6A peptide) [Antp-I6A]
killing effect compared with the wild-type peptide (U937): increase in effect | Cell Survival Rate (%) (U937): 7.48% | Anti-cancer activity (% relative to wild-type peptide) (U937): 120.54% | Decrease in cell survival rate (% relative to wild-type peptide) (U937): 310.88% | effect compared with the wild-type protein (summary of mutations) (cancer cells): effect higher than the wild-type protein

CC[C@H](C)[C@H](NC(=O)[C@H](CCCNC(=N)N)NC(=O)[C@H](C)NC(=O)[C@H](Cc1ccc(O)cc1)NC(=O)[C@H](C)NC(=O)[C@H](CCCCN)NC(=O)[C@H](CCCCN)NC(=O)[C@H](CCCCN)NC(=O)[C@H](Cc1c[nH]c2ccccc12)NC(=O)[C@H](CCCCN)NC(=O)[C@H](CCSC)NC(=O)[C@H](CCCNC(=N)N)NC(=O)[C@H](CCCNC(=N)N)NC(=O)[C@H](CC(N)=O)NC(=O)[C@H](CCC(N)=O)NC(=O)[C@H](Cc1ccccc1)NC(=O)[C@H](Cc1c[nH]c2ccccc12)NC(=O)[C@@H](NC(=O)[C@H](CCCCN)NC(=O)[C@@H](NC(=O)[C@H](CCC(N)=O)NC(=O)[C@@H](N)CCCNC(=N)N)[C@@H](C)CC)[C@@H](C)CC)C(=O)NCC(=O)N[C@@H](CC(N)=O)C(=O)N[C@@H](CO)C(=O)NCC(=O)NCC(=O)NCC(=O)O (H-RQIKIWFQNRRMKWKKKAYARIGNSGGG-OH)
cytotoxic activity / cell-killing effect (cancer cells): the cytotoxic activity was lower

CC[C@H](C)[C@H](NC(=O)[C@H](CCCNC(=N)N)NC(=O)[C@H](C)NC(=O)[C@H](Cc1ccc(O)cc1)NC(=O)[C@H](C)NC(=O)[C@H](CCCCN)NC(=O)[C@H](C)NC(=O)[C@@H](NC(=O)[C@H](CCC(N)=O)NC(=O)[C@H](CCCNC(=N)N)NC(=O)[C@H](CCCCN)NC(=O)[C@H](CCCCN)NC(=O)[C@H](Cc1c[nH]c2ccccc12)NC(=O)[C@H](CCCCN)NC(=O)[C@H](CCSC)NC(=O)[C@H](CCCNC(=N)N)NC(=O)[C@H](CCCNC(=N)N)NC(=O)[C@H](CC(N)=O)NC(=O)[C@H](CCC(N)=O)NC(=O)[C@H](Cc1ccccc1)NC(=O)[C@H](Cc1c[nH]c2ccccc12)NC(=O)[C@@H](NC(=O)[C@H](CCCCN)NC(=O)[C@@H](NC(=O)[C@H](CCC(N)=O)NC(=O)[C@@H](N)CCCNC(=N)N)[C@@H](C)CC)[C@@H](C)CC)[C@@H](C)CC)C(=O)NCC(=O)N[C@@H](CC(N)=O)C(=O)N[C@@H](CO)C(=O)N[C@@H](Cc1ccc(O)cc1)C(=O)N[C@@H](Cc1ccccc1)C(=O)N[C@@H](CCCCN)C(=O)O [Antp-TPR slong] (H-RQIKIWFQNRRMKWKKRQIAKAYARIGNSYFK-OH; N-terminus and C-terminus assumed)
killing effect compared with the wild-type peptide (Caki-1): retained the effect of wild-type peptide

RQIKIWFQNRRMKWKKKAYAAIGNSYFK (Antp-TPR R5A peptide) [Antp-R5A]
Cell Survival Rate (%) (U937): 40.24% | Anti-cancer activity (% relative to wild-type peptide) (U937): 77.85% | Decrease in cell survival rate (% relative to wild-type peptide) (U937): 57.74% | effect compared with the wild-type protein (summary of mutations) (cancer cells): effective but with a lower effect than the wild-type protein
